Measured values taken from patent EP2119770B1, “Production of alpha-oxyfunctionalized carbonyl compounds” (priority 2008, dated 2009).
Where “and” joins values, the source holds several entries; their conditions need not be identical. Equal entries are not always repeated.

Tests used:
Gox0502 = target: T1, Gox0502 (Gluconobacter oxydans, UniProt Q5FTL6); test: Enzyme activity assay (rate of NAD(P)H decrease at 340 nm), Gox0502; type: biochemical; design: Strep-tag II (N); made in house; host or cells: E. coli BL21 or E. coli DH5α (pASK-IBA5); conditions: 10 mM substrate; for Specific Activity: Tab. 7, Gox0502, cofactor NADPH, pH 7.0, 30 °C
T1 sequence (Q5FTL6 1-361): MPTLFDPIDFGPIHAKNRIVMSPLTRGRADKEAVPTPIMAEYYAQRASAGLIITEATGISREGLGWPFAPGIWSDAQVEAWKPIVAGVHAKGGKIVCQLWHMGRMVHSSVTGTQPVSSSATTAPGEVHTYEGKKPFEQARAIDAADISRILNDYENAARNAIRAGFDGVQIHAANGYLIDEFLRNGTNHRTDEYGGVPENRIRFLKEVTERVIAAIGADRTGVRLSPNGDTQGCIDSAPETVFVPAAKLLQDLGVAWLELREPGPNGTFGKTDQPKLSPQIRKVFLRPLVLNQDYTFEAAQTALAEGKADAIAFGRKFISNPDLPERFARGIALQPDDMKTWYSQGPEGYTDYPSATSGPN
Description: (§1) Measurment of enzyme activity: NADPH-dependent alpha-ketocarbonyl reductases were assayed by a routine method used for NAD(P)-linked enzymes by recording the rate of decrease of NADPH at 340 nm (ε = 6.22 mM^-1 x cm^-1)) with substrates at 30 °C. The reaction mixture (1 ml) for reduction of alpha-ketocarbonyl substrates contained 10 mM substrate, 40 mM potassium phosphate buffer pH 7.0, 0.025 mM NAD(P)H , and the enzyme. Reactions were induced by addition of enzyme or substrate. One unit of enzyme activity was defined as the amount of enzyme catalyzing the conversion of 1 µmol of pyridine nucleotide per min at 30 °C.
(§2) NADPH-dependent α-ketocarbonyl reductases were assayed by a routine method used for NAD(P)-linked enzymes by recording the rate of decrease of NADPH at 340 nm (ε = 6.22 mM^-1.cm^-1) with substrates at 30 °C. The reaction mixture (1 ml) for reduction of alpha-ketocarbonyl substrates contained 10 mM substrate, 40 mM potassium phosphate buffer pH 7.0, 0.025 mM NADPH , and the enzyme. Reactions were induced by addition of enzyme or substrate. One unit of enzyme activity was defined as the amount of enzyme catalyzing the conversion of 1 µmol of pyridine nucleotide per min at 30 °C.
(§3) For each enzyme (Gox0313, Gox0502, Gox0644, Gox0646, Gox1615, Gox2107, and Gox2684 respectively), fresh enzyme preparations were used to validate the substrate spectrum and the kinetic activity. […] Purified NAD(P)-dependent oxidoreductases were assayed at 30 °C by a routine method used for NAD(P)-linked enzymes by recording the rate of decrease of NAD(P)H at 340 nm (ε = […]) with substrates capable of reduction reactions. The standard reaction mixture (1 ml) for the reduction reactions of substrates contained 10 mM substrate, 40 mM potassium phosphate buffer (K-phosphate buffer) pH 7.0, 0.05 mM NAD(P)H, and the enzyme unless otherwise noted. Reactions were induced by addition of enzyme or substrate. One unit of enzyme activity was defined as the amount of enzyme catalyzing the conversion of 1 µmol of pyridine nucleotide per min at 30 °C. Measurement of the protein content was performed by the method of Bradford in Anal. Biochem. 72:248-254 (1976). Table 3: Summary of enzymatic activities with α-diketones, α-ketoaldehydes and /or α-ketoesters

Gox2107 = Gox2107 (Gluconobacter oxydans, UniProt Q5FP53); test: Enzyme activity assay (rate of NAD(P)H decrease at 340 nm), Gox2107; type: biochemical; conditions: for Specific Activity: Tab. 7, Gox2107, cofactor NADPH, 10 mM substrate, pH 7.0, 30 °C
Description: as §1, §2, §3

Gox2684 = target: T2, Gox2684 (Gluconobacter oxydans, UniProt Q5HXK5); test: Enzyme activity assay (rate of NAD(P)H decrease at 340 nm), Gox2684; type: biochemical; conditions: Tab. 8, GOX2684; cofactor NADPH; 10 mM substrate, pH 7.0, 30 °C
T2 sequence (Q5HXK5 1-357): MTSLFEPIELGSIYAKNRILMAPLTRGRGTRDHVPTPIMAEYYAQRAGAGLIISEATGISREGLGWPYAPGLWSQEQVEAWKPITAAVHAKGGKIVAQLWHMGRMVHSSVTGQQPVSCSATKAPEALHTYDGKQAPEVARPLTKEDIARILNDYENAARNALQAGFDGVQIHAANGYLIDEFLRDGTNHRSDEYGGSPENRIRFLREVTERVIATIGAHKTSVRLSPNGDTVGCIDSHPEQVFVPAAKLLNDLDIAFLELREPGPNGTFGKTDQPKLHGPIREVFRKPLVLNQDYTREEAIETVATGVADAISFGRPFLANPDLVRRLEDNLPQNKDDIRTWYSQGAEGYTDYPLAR
Description: as §1, §2, §3

Gox0646 = target: T3, Gox0646 (Gluconobacter oxydans, UniProt Q5FT73); test: Enzyme activity assay (rate of NAD(P)H decrease at 340 nm), Gox0646; type: biochemical; conditions: 10 mM substrate; for Specific Activities: Tab. 9, GOX0646, cofactor NADPH, pH 7.0, 30 °C
T3 sequence (Q5FT73 1-264): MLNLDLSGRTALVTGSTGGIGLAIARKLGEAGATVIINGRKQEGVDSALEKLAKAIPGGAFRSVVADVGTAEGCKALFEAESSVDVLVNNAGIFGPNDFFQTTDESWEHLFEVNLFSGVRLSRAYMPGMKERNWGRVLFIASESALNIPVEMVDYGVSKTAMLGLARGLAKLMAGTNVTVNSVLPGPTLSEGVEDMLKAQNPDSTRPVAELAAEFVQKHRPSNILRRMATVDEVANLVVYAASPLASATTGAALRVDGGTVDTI
Description: as §1, §2, §3

Gox1615 = target: T4, Gox1615 (Gluconobacter oxydans, UniProt Q5FQJ0); test: Enzyme activity assay (rate of NAD(P)H decrease at 340 nm), Gox1615; type: biochemical; conditions: 10 mM substrate; for Specific Activity: Tab. 5, Gox1615, cofactor NADPH, pH 7.0, 30 °C
T4 sequence (Q5FQJ0 1-332): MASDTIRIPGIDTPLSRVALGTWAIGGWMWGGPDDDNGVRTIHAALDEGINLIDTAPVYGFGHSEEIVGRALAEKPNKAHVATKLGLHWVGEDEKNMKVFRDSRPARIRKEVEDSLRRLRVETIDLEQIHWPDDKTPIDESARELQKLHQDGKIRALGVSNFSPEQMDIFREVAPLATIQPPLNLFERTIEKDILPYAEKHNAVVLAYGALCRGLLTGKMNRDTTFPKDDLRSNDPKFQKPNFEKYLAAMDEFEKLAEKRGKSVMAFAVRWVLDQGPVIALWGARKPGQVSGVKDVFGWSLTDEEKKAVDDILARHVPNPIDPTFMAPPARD
Description: as §1, §2, §3

Gox0644 = Gox0644 (Gluconobacter oxydans, UniProt Q5FT75); test: Enzyme activity assay (rate of NAD(P)H decrease at 340 nm), Gox0644; type: biochemical; conditions: 10 mM substrate; for Specific Activity: Tab. 4, Gox0644, cofactor NADPH, pH 7.0, 30 °C
Description: (§4) Reactions were induced by addition of enzyme or substrate. One unit of enzyme activity was defined as the amount of enzyme catalyzing the conversion of 1 µmol of pyridine nucleotide per min at 30 °C.
as §4
For each enzyme (Gox0313, Gox0502, Gox0644, Gox0646, Gox1615, Gox2107, and Gox2684 respectively), fresh enzyme preparations were used to validate the substrate spectrum and the kinetic activity. […] Reactions were induced by addition of enzyme or substrate. One unit of enzyme activity was defined as the amount of enzyme catalyzing the conversion of 1 µmol of pyridine nucleotide per min at 30 °C. […] Table 3: Summary of enzymatic activities with α-diketones, α-ketoaldehydes and /or α-ketoesters

Gox0313 = target: T5, Gox0313 (Gluconobacter oxydans, UniProt Q5FU50); test: Enzyme activity assay (rate of NAD(P)H decrease at 340 nm), Gox0313; type: biochemical; conditions: 10 mM substrate; for Specific Activity: Tab. 6, Gox0313, substrate reduction, cofactor NADH, pH 7.0, 30 °C
T5 sequence (Q5FU50 1-343): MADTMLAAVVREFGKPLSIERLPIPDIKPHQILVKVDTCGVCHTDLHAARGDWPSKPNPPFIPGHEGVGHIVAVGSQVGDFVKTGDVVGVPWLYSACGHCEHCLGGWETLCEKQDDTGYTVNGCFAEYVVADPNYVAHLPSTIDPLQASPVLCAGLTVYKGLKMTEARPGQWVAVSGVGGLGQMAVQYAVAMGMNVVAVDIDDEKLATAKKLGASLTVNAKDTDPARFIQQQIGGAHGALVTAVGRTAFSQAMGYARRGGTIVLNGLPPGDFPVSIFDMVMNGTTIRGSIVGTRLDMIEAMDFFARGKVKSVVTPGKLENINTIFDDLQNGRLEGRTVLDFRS
Description: as §1, §2, §3

[1] = substrate: CCC(=O)C(C)=O; test: Enzyme kinetics (Lineweaver-Burk plots), Gox0646; type: biochemical, Gluconobacter oxydans; conditions: other: Gox0646; substrate 0.025 to 10 mM
Description: (§5) Determination of pH and temperature optima and enzyme kinetics: The optimum pH for enzyme activities was determined by a modified method of Salusjärvi, T. et al., Appl. Microbiol. Biotechnol. 65:306-314 (2004) using the following buffer system (50 mM final concentration each): sodium acetate pH 4.5 - 6.5, potassium phosphate pH 6.5 - 8.0, Tris-HCl pH 8.0 - 10. Temperature optima for the biocatalysts were determined under standard reaction conditions at temperatures ranging from 20 - 80 °C. The Michaelis constant (Km) for the proteins was determined from purified enzyme by Lineweaver-Burk plots. Assays were performed at optimum pH for each enzyme and at 30 °C using the top substrate and a targeted substrate. The Km for each substrate was calculated using concentrations of 0.0025 to 10 mM, and the Km NAD(P)H and NAD(P) was calculated using concentrations of 0.01 to 0.5 mM
(§6) The Michaelis constants were determined from purified enzyme by Lineweaver-Burk plots. The Km and Vmax values for the substrates were calculated using concentrations of 0.025 to 10 mM, The optimal pH values and temperatures for enzyme activities are also shown in Tab. 11. Tab. 11: Summary of kinetic parameters

[2] = substrate: CCC(=O)C(C)=O; test: Enzyme kinetics (Lineweaver-Burk plots), Gox0313; type: biochemical, Gluconobacter oxydans; conditions: other: Gox0313; substrate 0.025 to 10 mM
Description: as §5, §6

[3] = substrate: CC=O; test: Enzyme kinetics (Lineweaver-Burk plots), Gox0313; type: biochemical, Gluconobacter oxydans; conditions: other: Gox0313; substrate 0.025 to 10 mM
Description: as §5, §6

| Specific Activity (Gox1615) [U/mg] | Specific Activity (Gox0644) [U/mg] | Molecule | Specific Activity (Gox0502) | Specific Activity (Gox2107) [U/mg] | Specific Activities (Gox0646) [U/mg] | further results |
| --- | --- | --- | --- | --- | --- | --- |
| – | – | O=C1C=CC(=O)c2ccccc21 [1,4-naphthoquinone] | 16.6 U/mg | 217.5 | 0.2 | activities (Gox2107; Gox2107, reduction with NADPH): 217.4 µmol/mg/min; Specific Activities (Gox2684): 3.4 U/mg |
| 2.4 | 16.1 | O=C1Nc2ccccc2C1=O [Isatin] | – | – | 0.1 | – |
| 6 | 60.0 | CC(=O)C(C)=O [2,3-butanedione] | 0.5 U/mg | < 0.1 | 0.8 | Specific Activities (Gox2684): 0.5 U/mg; Specific Activity (Gox0313): 28.5 U/mg |
| – | – | O=C1C=CC(=O)C=C1 [p-benzoquinone] | 10 U/mg | 180.5 | 0.3 | – |
| – | – | Gox0646 (Gluconobacter oxydans 621H) (protein) MLNLDLSGRTALVTGSTGGIGLAIARKLGEAGATVIINGRKQEGVDSALEKLAKAIPGGAFRSVVADVGTAEGCKALFEAESSVDVLVNNAGIFGPNDFFQTTDESWEHLFEVNLFSGVRLSRAYMPGMKERNWGRVLFIASESALNIPVEMVDYGVSKTAMLGLARGLAKLMAGTNVTVNSVLPGPTLSEGVEDMLKAQNPDSTRPVAELAAEFVQKHRPSNILRRMATVDEVANLVVYAASPLASATTGAALRVDGGTVDTI | – | – | – | Km [1]: 9 mM and 9.3 mM; Vmax [1]: 10 U/mg protein and 10.0 µmol/min•mg |
| – | – | Gox0313 (Gluconobacter oxydans 621H) (protein) MADTMLAAVVREFGKPLSIERLPIPDIKPHQILVKVDTCGVCHTDLHAARGDWPSKPNPPFIPGHEGVGHIVAVGSQVGDFVKTGDVVGVPWLYSACGHCEHCLGGWETLCEKQDDTGYTVNGCFAEYVVADPNYVAHLPSTIDPLQASPVLCAGLTVYKGLKMTEARPGQWVAVSGVGGLGQMAVQYAVAMGMNVVAVDIDDEKLATAKKLGASLTVNAKDTDPARFIQQQIGGAHGALVTAVGRTAFSQAMGYARRGGTIVLNGLPPGDFPVSIFDMVMNGTTIRGSIVGTRLDMIEAMDFFARGKVKSVVTPGKLENINTIFDDLQNGRLEGRTVLDFRS | – | – | – | Km [2]: 3.1 mM; Vmax [2]: 97 U/mg protein; Km [3]: 0.5 mM; Vmax [3]: 95 U/mg protein |

| Molecule | Specific Activity (Gox1615) [U/mg] | Specific Activity (Gox0644) [U/mg] | Specific Activity (Gox0502) | Specific Activity (Gox2107) [U/mg] | Specific Activities (Gox0646) [U/mg] | further results |
| --- | --- | --- | --- | --- | --- | --- |
| CC(=O)C(=O)c1ccccc1 [1-phenyl-1,2-propanedione] | 5.4 | 75.4 | 2,0 U/mg | < 0.1 | 6.0 | Activity (Gox0502; Table 3, Gox0502, K-phosphate buffer pH 7.0, 0.05 mM NAD(P)H, 30 °C): 2.0 U/mg; Activity (Gox1615; Table 3, Gox1615, K-phosphate buffer pH 7.0, 0.05 mM NAD(P)H, 30 °C): 5.4 U/mg; Activity (Gox0646; Table 3, Gox0646, K-phosphate buffer pH 7.0, 0.05 mM NAD(P)H, 30 °C): 6.0 U/mg; Activity (Gox0644; Table 3, Gox0644, K-phosphate buffer pH 7.0, 0.05 mM NAD(P)H, 30 °C): 75.4 U/mg; Specific Activity (Gox0313): 0.2 U/mg; Activity (Gox0313; Table 3, Gox0313, K-phosphate buffer pH 7.0, 0.05 mM NAD(P)H, 30 °C): 0.2 U/mg |
